Earlier results on one compound are cited in article PMC3725996 (Bioorganic & medicinal chemistry letters, 2010).

The test system of data set [1] is nicotine self-administration. Particulars: rats; ref [17].
The test system of data set [2] is extracellular DA in rat nucleus accumbens. Particulars: following acute or repeated nicotine administration, ref [16].

`Cc1ccc[n+](CCCCCCCCCCCC[n+]2cccc(C)c2)c1.[Br-].[Br-]` [bPiDDB 1, N,N′-dodecane-1,12-diyl-bis-3-picolinium dibromide]: in data set [1], the “Effect on nicotine self-administration” value is “dose-dependently decreased nicotine self-administration” and the “Effect on sucrose-maintained responding” value is listed as “but not sucrose-maintained responding”. In addition, where the note is “oral route, ref Albayati et al., unpublished data”, the Oral bioavailability entry is reported as “limited bioavailability when given by the oral route”. For the setting “subcutaneous delivery, 14C-bPiDDB, ref [19]–[20]”, the Brain bioavailability entry was “brain-bioavailable after subcutaneous delivery”. Further, the “Effect on increase in extracellular DA in nucleus accumbens” value in data set [2] is given as “dose-dependently reduced the increase in extracellular DA”.
